Data taken from patent EP0019589A1, “Tripeptide derivatives and their use in a process for determining enzymes” (Pentapharm A.G., priority 1979, dated 1980).
Non-standard residues stand in square brackets, D forms with d. Residues, ends and D or L forms follow the SMILES beside them. *: point of attachment. Cha = N[C@@H](CC1CCCCC1)C(=O)O; dCha = N[C@H](CC1CCCCC1)C(=O)O; dChg = N[C@@H](C(=O)O)C1CCCCC1; pNA = O=[N+]([O-])c1ccc(N*)cc1; dNle = CCCC[C@@H](N)C(=O)O; Pip = O=C(O)[C@@H]1CCCCN1; dNva = CCC[C@@H](N)C(=O)O; Nle = CCCC[C@H](N)C(=O)O; dAbu = CC[C@@H](N)C(=O)O; Nva = CCC[C@H](N)C(=O)O; Abu = CC[C@H](N)C(=O)O

Experiments:
Format in all cases: biochemical
[1] = biological target: T1, Submandibularis-Kallikrein (Homo sapiens, UniProt P06870); assay: Cleavage of chromogenic substrate by submandibular (glandular) kallikrein in human sputum; details: 1 ml human sputum, per min; Substratkonzentration 2 x 10^-4 molar
T1 construct: Man mischt 0,5 ml Sputum mit 2 ml TRIS-Imidazol-Puffer; from tissue; host or cells: human sputum
Summary of the method: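 Sputum mixed with TRIS-imidazole buffer (ionic strength 1.0), preincubated 5 min at 37°C and centrifuged; supernatant incubated with aqueous substrate solution (2 x 10^-3 M, stock). p-Nitroaniline release followed continuously at 405 nm for 5-10 min; activity expressed as mU per ml sputum from ΔOD/min.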

[2] = biological target: T2, Humanplasmin (Homo sapiens, UniProt P00747); assay: Cleavage of chromogenic substrate by human plasmin; details: 1 CU-Einheit human plasmin, per min; Substratkonzentration 2 x 10^-4 molar
T2 construct: da bei der Aktivierung aus 1 Molekül Plasminogen 1 Molekül Plasmin entsteht

[3] = biological target: T3, Humanthrombin (Homo sapiens, UniProt P00734); assay: Cleavage of chromogenic substrate by human NIH thrombin; details: 1 NIH-Einheit human thrombin, per min; Substratkonzentration 2 x 10^-4 molar
T3 construct: Humanplasmin und hu-manem NIH-Thrombin
Summary of the method: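 Thrombin hydrolysis of chromogenic p-nitroanilide substrate read spectrophotometrically at 405 nm; fluorogenic naphthylamine, methylcoumarylamine or di(methoxycarbonyl)phenylamine substrates read continuously by fluorescence emission at 400-470 nm. Activity taken as product formed per unit time; 1 µmol product/min defined as 1 enzyme unit for a given substrate.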

[4] = biological target: T4, Urinkallikrein (Homo sapiens, UniProt P06870); assay: Cleavage of chromogenic substrate by urinary kallikrein in human urine; details: 1 ml human urine (pooled morning urine of healthy persons), per min; Substratkonzentration 2 x 10^-4 molar
T4 construct: 1 ml Urin und 1 ml TRIS-Imidazol-Puffer mit pH 7,9; from tissue; host or cells: human urine
T4 sequence (P06870 25-262): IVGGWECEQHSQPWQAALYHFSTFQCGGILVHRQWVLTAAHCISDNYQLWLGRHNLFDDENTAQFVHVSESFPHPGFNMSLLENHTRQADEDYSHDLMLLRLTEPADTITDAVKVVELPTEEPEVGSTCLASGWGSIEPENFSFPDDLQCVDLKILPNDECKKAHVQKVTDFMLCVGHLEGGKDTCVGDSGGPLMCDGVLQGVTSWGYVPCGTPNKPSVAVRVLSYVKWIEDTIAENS

T1 sequence (P06870 25-262): as above
T2 sequence (P00747 581-810 limits assumed): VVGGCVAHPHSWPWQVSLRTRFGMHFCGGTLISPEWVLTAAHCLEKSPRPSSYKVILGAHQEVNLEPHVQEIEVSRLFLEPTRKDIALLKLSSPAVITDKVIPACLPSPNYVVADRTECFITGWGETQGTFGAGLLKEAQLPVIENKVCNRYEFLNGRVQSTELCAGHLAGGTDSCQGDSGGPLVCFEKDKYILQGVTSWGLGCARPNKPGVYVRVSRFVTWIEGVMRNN
T2 sequence (P00747 97-580 partner limits assumed): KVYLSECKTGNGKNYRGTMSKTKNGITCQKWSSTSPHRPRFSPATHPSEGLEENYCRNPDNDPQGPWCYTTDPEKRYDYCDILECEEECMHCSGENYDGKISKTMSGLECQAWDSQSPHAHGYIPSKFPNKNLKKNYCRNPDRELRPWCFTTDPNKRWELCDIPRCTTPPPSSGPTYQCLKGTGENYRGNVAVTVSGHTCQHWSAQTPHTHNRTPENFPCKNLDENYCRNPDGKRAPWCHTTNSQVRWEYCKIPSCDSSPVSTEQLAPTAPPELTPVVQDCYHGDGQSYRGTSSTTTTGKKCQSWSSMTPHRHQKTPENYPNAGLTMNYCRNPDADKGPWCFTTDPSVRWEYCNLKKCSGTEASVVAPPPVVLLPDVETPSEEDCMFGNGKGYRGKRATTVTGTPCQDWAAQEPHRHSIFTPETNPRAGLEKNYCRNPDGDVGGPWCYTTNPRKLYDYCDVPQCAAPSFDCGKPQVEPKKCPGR

Structure (SMILES)	Menge des durch 1 ml Humansputum pro Min. freigesetzten Spaltproduktes R-NH2 in Nanomol (Submandibularis-Kallikrein) [1]	Menge des durch 1 CU-Einheit Humanplasmin pro Min. freigesetzten Spaltproduktes R-NH2 in Nanomol (Humanplasmin) [2]	Menge des durch 1 NIH-Einheit Thrombin pro Min. freigesetzten Spaltproduktes R-NH2 in Nanomol (Humanthrombin) [3]	Menge des durch 1 ml Humanurin pro Min. freigesetzten Spaltproduktes R-NH2 in Nanomol (Urinkallikrein) [4]
N=C(N)NCCC[C@H](NC(=O)[C@@H]1CCCCN1C(=O)[C@H](N)C1CCCCC1)C(=O)Nc1ccc([N+](=O)[O-])cc1 [Beispiel 65, 2HBr.H-D-CHG-Pip-Arg-pNA] (H-[dChg]-[Pip]-Arg-pNA)	14,2 Nanomol	259 Nanomol	142,5 Nanomol	1,92 Nanomol
N=C(N)NCCC[C@H](NC(=O)[C@@H]1CCCCN1C(=O)[C@H](N)CC1CCCCC1)C(=O)Nc1ccc([N+](=O)[O-])cc1 [Beispiel 66, 2HBr.H-D-CHA-Pip-Arg-pNA] (H-[dCha]-[Pip]-Arg-pNA)	9,8 Nanomol	228 Nanomol	114,2 Nanomol	0,53 Nanomol
CCCC[C@H](NC(=O)[C@H](N)C1CCCCC1)C(=O)N[C@@H](CCCNC(=N)N)C(=O)Nc1ccc([N+](=O)[O-])cc1 [Beispiel 67, 2HBr.H-D-CHG-Nleu-Arg-pNA] (H-[dChg]-[Nle]-Arg-pNA)	13,5 Nanomol	739 Nanomol	41,0 Nanomol	0,53 Nanomol
CCCC[C@H](NC(=O)[C@H](N)CC1CCCCC1)C(=O)N[C@@H](CCCNC(=N)N)C(=O)Nc1ccc([N+](=O)[O-])cc1 [Beispiel 68, 2HBr.H-D-CHA-Nleu-Arg-pNA] (H-[dCha]-[Nle]-Arg-pNA)	15,0 Nanomol	899 Nanomol	77,6 Nanomol	0,45 Nanomol
CCC[C@H](NC(=O)[C@H](N)CC1CCCCC1)C(=O)N[C@@H](CCCNC(=N)N)C(=O)Nc1ccc([N+](=O)[O-])cc1 [Beispiel 69, 2HBr.H-D-CHA-Nval-Arg-pNA] (H-[dCha]-[Nva]-Arg-pNA)	14,2 Nanomol	574 Nanomol	97,1 Nanomol	0,35 Nanomol
CCC[C@H](NC(=O)[C@H](N)C1CCCCC1)C(=O)N[C@@H](CCCNC(=N)N)C(=O)Nc1ccc([N+](=O)[O-])cc1 [Beispiel 70, 2HBr.H-D-CHG-Nval-Arg-pNA] (H-[dChg]-[Nva]-Arg-pNA)	24,2 Nanomol	488 Nanomol	67,4 Nanomol	0,38 Nanomol
CCC[C@@H](N)C(=O)N[C@@H](CC1CCCCC1)C(=O)N[C@@H](CCCCN)C(=O)Nc1ccc([N+](=O)[O-])cc1 [Beispiel 71, 2HBr.H-D-Nval-CHA-Lys-pNA] (H-[dNva]-[Cha]-Lys-pNA)	18,04 Nanomol	655 Nanomol	6,9 Nanomol	1,87 Nanomol
CC[C@@H](N)C(=O)N[C@@H](CC1CCCCC1)C(=O)N[C@@H](CCCCN)C(=O)Nc1ccc([N+](=O)[O-])cc1 [Beispiel 72, 2HBr.H-D-But-CHA-Lys-pNA] (H-[dAbu]-[Cha]-Lys-pNA)	21,0 Nanomol	532 Nanomol	3,6 Nanomol	2,22 Nanomol
CC(C)C[C@@H](N)C(=O)N[C@@H](CC1CCCCC1)C(=O)N[C@@H](CCCCN)C(=O)Nc1ccc([N+](=O)[O-])cc1 [Beispiel 73, 2HBr.H-D-Leu-CHA-Lys-pNA] (H-[dL]-[Cha]-Lys-pNA)	19,3 Nanomol	778 Nanomol	3,4 Nanomol	1,73 Nanomol
CCCC[C@@H](N)C(=O)N[C@@H](CC1CCCCC1)C(=O)N[C@@H](CCCCN)C(=O)Nc1ccc([N+](=O)[O-])cc1 [Beispiel 74, 2HBr.H-D-Nleu-CHA-Lys-pNA] (H-[dNle]-[Cha]-Lys-pNA)	8,4 Nanomol	695 Nanomol	3,9 Nanomol	0,77 Nanomol
CC[C@H](NC(=O)[C@H](N)C1CCCCC1)C(=O)N[C@@H](CCCNC(=N)N)C(=O)Nc1ccc([N+](=O)[O-])cc1 [Beispiel 75, 2HBr.H-D-CHG-But-Arg-pNA] (H-[dChg]-[Abu]-Arg-pNA)	14,5 Nanomol	439 Nanomol	102,9 Nanomol	0,51 Nanomol
CC[C@H](NC(=O)[C@H](N)CC1CCCCC1)C(=O)N[C@@H](CCCNC(=N)N)C(=O)Nc1ccc([N+](=O)[O-])cc1 [Beispiel 76, 2HBr.H-D-CHA-But-Arg-pNA] (H-[dCha]-[Abu]-Arg-pNA)	18,1 Nanomol	478 Nanomol	108,9 Nanomol	0,51 Nanomol
CC[C@H](NC(=O)[C@H](N)CC1CCC(O)CC1)C(=O)N[C@@H](CCCNC(=N)N)C(=O)Nc1ccc([N+](=O)[O-])cc1 (stereo partly drawn) [Beispiel 77, 2HBr.H-D-CHT-But-Arg-pNA]	18,2 Nanomol	463 Nanomol	114,2 Nanomol	0,64 Nanomol
